Converted amounts (≈) assume the structure as drawn.
Assay: Assessment of solubility (McIlvaine buffers, 24 h shake, UPLC-UV)
Format: physicochemical
Details: kinetic from dmso stock
Protocol: Solubility is measured by the following method.
100 uL, 10 mM DMSO stock solution of each compound is prepared in a 96 well plate format. The experiment is done in single determination at 3 pH values (2.2, 4.5 and 6.8). For each pH and one reference, 40 uL of each compound is needed.
McIlvaine pH 2.2: To 2.076 g citric acid monohydrate and 0.043 g Na2HPO4×2H2O add 100 ml deionized water
McIlvaine pH 4.5: To 1.166 g citric acid monohydrate and 1.585 g Na2HPO4×2H2O add 100 ml deionized water
McIlvaine pH 6.8: To 0.476 g citric acid monohydrate and 2.753 g Na2HPO4×2H2O add 100 ml deionized water
With a suitable liquid handling device (Multipette® or a liquid handler) 390 uL of each buffer solution and 10 uL of compound is added to each well of a 96 deep well plate. The plates are covered firmly and shaken for 24 h on an over head shaker (at 54 RPM) at room temperature. The DMSO content in the final buffer is 2.5% v/v.
After 24 h the plates are centrifuged to remove droplets on the lid before opening (for ˜5 min at 2500 RPM).
The filtration is done under vacuum with Millipore 96 well filter plate. Filtrate is collected in a deep well plate and transferred to a suitable plate for UPLC analysis.
The reference plate is prepared by adding 10 uL of compound to 390 uL of 50:50 acetonitrile/water in a 96 deep well plate and transferred to a suitable plate for UPLC analysis. Wells are checked visually for precipitation, any presence noted under comments in reported results.
The samples are measured with UPLC-UV using the chromatographic method described below.
Waters Empower®2 software is used for generating Sample Sets (according to the plate layout), Sample Set Methods and Instrument Methods.
One Sample Set comprises the methods for three 96 well plates (one reference plate and two sample plates, and includes one Sample Set Method and one Instrument Method).
3. Data Processing and Analysis
The UV chromatograms collected at 254 nm are integrated and processed.
It is assumed that the compound is completely dissolved in the reference solution (50:50 acetonitrile/water)

SMILES | solubility at 24 h (pH 2.2, aqueous buffer) [µg/mL] | solubility at 24 h (pH 4.5, aqueous buffer) [µg/mL] | solubility at 24 h (pH 6.8, aqueous buffer) [µg/mL]
COc1c(C(=O)O)cnn1-c1cccc(-c2cccc(C)c2OCc2ccc3c(c2)CCN([C@H]2CC[C@]4(CCCO4)CC2)C3)n1 [Compound 102] | 99 (≈ 163 µM) | 81 (≈ 133 µM) | 82 (≈ 135 µM)
COc1c(C(=O)O)cnn1-c1cccc(-c2cccc(C)c2OCc2ccc3c(c2)CCN([C@H]2CC[C@@]4(CCCO4)CC2)C3)n1 [Compound 103] | 96 (≈ 158 µM) | 78 (≈ 128 µM) | 81 (≈ 133 µM)
Cc1cccc(-c2cccc(-n3ncc(C(=O)O)c3OC(C)C)n2)c1OCc1ccc2c(c1C)CCN(C1CCOCC1)C2 [Compound 104] | 110 (≈ 184 µM) | 93 (≈ 156 µM) | 97 (≈ 163 µM)
COc1c(C(=O)O)cnn1-c1cccc(-c2cccc(C)c2OCc2ccc3c(c2C)CCN([C@H]2CCOC2)C3)n1 [Compound 105] | 93 (≈ 168 µM) | 72 (≈ 130 µM) | 75 (≈ 135 µM)
COc1c(C(=O)O)cnn1-c1cccc(-c2cccc(C)c2OCc2ccc3c(c2C)CCN([C@@H]2CCOC2)C3)n1 [Compound 106] | 88 (≈ 159 µM) | 69 (≈ 124 µM) | 73 (≈ 132 µM)
CCOc1c(C(=O)O)cnn1-c1cccc(-c2cccc(C)c2OCc2ccc3c(c2)CCN([C@H]2CCOC2)C3)n1 [Compound 110] | 130 (≈ 234 µM) | 96 (≈ 173 µM) | 120 (≈ 216 µM)
Cc1cccc(-c2cccc(-n3ncc(C(=O)O)c3OC(C)C)n2)c1OCc1ccc2c(c1)CCN([C@H]1CCOC1)C2 [Compound 111] | 87 (≈ 153 µM) | 69 (≈ 121 µM) | 75 (≈ 132 µM)
CCOc1c(C(=O)O)cnn1-c1cccc(-c2cccc(C)c2OCc2ccc3c(c2)CCN([C@@H]2CCOC2)C3)n1 [Compound 112] | 110 (≈ 198 µM) | 78 (≈ 141 µM) | 94 (≈ 169 µM)
Cc1cccc(-c2cccc(-n3ncc(C(=O)O)c3OC(C)C)n2)c1OCc1ccc2c(c1)CCN([C@@H]1CCCOC1)C2 [Compound 113] | 94 (≈ 161 µM) | 80 (≈ 137 µM) | 84 (≈ 144 µM)
CCOc1c(C(=O)O)cnn1-c1cccc(-c2cccc(C)c2OCc2ccc3c(c2C)CCN(C2CCOCC2)C3)n1 [Compound 114] | 120 (≈ 206 µM) | 99 (≈ 170 µM) | 100 (≈ 172 µM)
Cc1cccc(-c2cccc(-n3ncc(C(=O)O)c3OC(C)C)n2)c1OCc1ccc2c(c1)CCN([C@H]1CCCOC1)C2 [Compound 115] | 89 (≈ 153 µM) | 71 (≈ 122 µM) | 43 (≈ 73.8 µM)
Cc1cccc(-c2cccc(-n3ncc(C(=O)O)c3OC(C)C)n2)c1OCc1ccc2c(c1C)CCN([C@H]1CCCOC1)C2 [Compound 117] | 102 (≈ 171 µM) | 82 (≈ 137 µM) | 85 (≈ 142 µM)
CCOc1c(C(=O)O)cnn1-c1cccc(-c2cccc(C)c2OCc2cc(C)c3c(c2)CN(C2CCOCC2)C3)n1 [Compound 118] | 110 (≈ 193 µM) | 84 (≈ 148 µM) | 92 (≈ 162 µM)
CCOc1c(C(=O)O)cnn1-c1cccc(-c2cccc(C)c2OCc2ccc3c(c2C)CN(C2CCOCC2)C3)n1 [Compound 119] | 110 (≈ 193 µM) | 89 (≈ 157 µM) | 97 (≈ 171 µM)
COc1c(C(=O)O)cnn1-c1cccc(-c2cccc(C)c2OCc2cc(C)c3c(c2C)CCN(C2CCOCC2)C3)n1 [Compound 120] | 110 (≈ 189 µM) | 94 (≈ 161 µM) | 97 (≈ 166 µM)
COc1c(C(=O)O)cnn1-c1cccc(-c2cccc(C)c2OCc2cc3c(cc2C)CN(C2CCOCC2)CC3)n1 [Compound 121] | 110 (≈ 193 µM) | 90 (≈ 158 µM) | 93 (≈ 164 µM)
COc1c(C(=O)O)cnn1-c1cccc(-c2cc(C)ccc2OCc2ccc3c(c2C)CCN(C2CCOCC2)C3)n1 [Compound 124] | 100 (≈ 176 µM) | 8.6 (≈ 15.1 µM) | 44 (≈ 77.4 µM)

SMILES | solubility at 24 h (pH 2.2, aqueous buffer) [µg/mL] | solubility at 24 h (pH 4.5, aqueous buffer) [µg/mL] | solubility at 24 h (pH 6.8, aqueous buffer) [µg/mL]
CCOc1c(C(=O)O)cnn1-c1cccc(-c2cccc(C)c2OCc2ccc3c(c2C)CCN([C@H]2CCOC2)C3)n1 [Compound 125] | 110 (≈ 193 µM) | 76 (≈ 134 µM) | 78 (≈ 137 µM)
CCOc1c(C(=O)O)cnn1-c1cccc(-c2cccc(C)c2OCc2ccc3c(c2C)CCN([C@@H]2CCOC2)C3)n1 [Compound 126] | 96 (≈ 169 µM) | 74 (≈ 130 µM) | 78 (≈ 137 µM)
CCOc1c(C(=O)O)cnn1-c1cccc(-c2cccc(C)c2OCc2ccc3c(c2C)CCN([C@@H]2CCCOC2)C3)n1 [Compound 128] | 93 (≈ 160 µM) | 77 (≈ 132 µM) | 78 (≈ 134 µM)
CCOc1c(C(=O)O)cnn1-c1cccc(-c2cccc(C)c2OCc2ccc3c(c2C)CCN([C@H]2CCCOC2)C3)n1 [Compound 129] | 95 (≈ 163 µM) | 79 (≈ 136 µM) | 79 (≈ 136 µM)
COc1c(C(=O)O)cnn1-c1cccc(-c2cccc(C)c2OCc2ccc3c(c2)OCCN(C2CCOCC2)C3)n1 [Compound 130] | 130 (≈ 228 µM) | 100 (≈ 175 µM) | 110 (≈ 193 µM)
CCOc1c(C(=O)O)cnn1-c1cccc(-c2cccc(C)c2OCc2ccc3c(c2)OCCN(C2CCOCC2)C3)n1 [Compound 131] | 130 (≈ 222 µM) | 97 (≈ 166 µM) | 110 (≈ 188 µM)
CCCOc1c(C(=O)O)cnn1-c1cccc(-c2cccc(C)c2OCc2ccc3c(c2C)CCN(C2CCOCC2)C3)n1 [Compound 133] | 120 (≈ 201 µM) | 99 (≈ 166 µM) | 100 (≈ 168 µM)
Cc1cccc(-c2cccc(-n3ncc(C(=O)O)c3OCC(C)C)n2)c1OCc1ccc2c(c1C)CCN(C1CCOCC1)C2 [Compound 134] | 110 (≈ 180 µM) | 94 (≈ 154 µM) | 100 (≈ 164 µM)
CC[C@H](C)Oc1c(C(=O)O)cnn1-c1cccc(-c2cccc(C)c2OCc2ccc3c(c2C)CCN(C2CCCOC2)C3)n1 (stereo partly drawn) [Compound 135] | 110 (≈ 180 µM) | 97 (≈ 159 µM) | 100 (≈ 164 µM)
CC[C@H](C)Oc1c(C(=O)O)cnn1-c1cccc(-c2cccc(C)c2OCc2ccc3c(c2C)CCN(C2CCOCC2)C3)n1 [Compound 136] | 120 (≈ 196 µM) | 100 (≈ 164 µM) | 110 (≈ 180 µM)
CC[C@H](C)Oc1c(C(=O)O)cnn1-c1cccc(-c2cccc(C)c2OCc2ccc3c(c2C)CCN(C2CCOC2)C3)n1 (stereo partly drawn) [Compound 137] | 110 (≈ 184 µM) | 98 (≈ 164 µM) | 110 (≈ 184 µM)
COc1c(C(=O)O)cnn1-c1cccc(-c2cccc(C)c2OCc2ccc3c(c2C)CCN(C[C@@H]2COCCO2)C3)n1 [Compound 139] | 130 (≈ 222 µM) | 110 (≈ 188 µM) | 120 (≈ 205 µM)
COc1c(C(=O)O)cnn1-c1cccc(-c2cccc(C)c2OCc2ccc3c(c2C)CCN([C@@H]2CCCOC2)C3)n1 [Compound 140] | 140 (≈ 246 µM) | 120 (≈ 211 µM) | 120 (≈ 211 µM)
COc1c(C(=O)O)cnn1-c1cccc(-c2cccc(C)c2OCc2ccc3c(c2C)CCN([C@H]2CCCOC2)C3)n1 [Compound 141] | 130 (≈ 229 µM) | 110 (≈ 193 µM) | 110 (≈ 193 µM)
COc1c(C(=O)O)cnn1-c1cccc(-c2cccc(C)c2OCc2ccc3c(c2C)CCN(C[C@H]2COCCO2)C3)n1 [Compound 142] | 120 (≈ 205 µM) | 87 (≈ 149 µM) | 93 (≈ 159 µM)
COc1c(C(=O)O)cnn1-c1cccc(-c2cccc(C)c2OCc2cc3c(cc2C)CN(C2CCOCC2)C3)n1 [Compound 143] | 160 (≈ 288 µM) | 150 (≈ 270 µM) | 160 (≈ 288 µM)
